Converted amounts (≈) assume the structure as drawn. “And” between values parts separate entries of the source, which are not always exact repeats. Identical values can stand only once.
Legend:
[1] = NO scavenging activity (sodium nitroprusside / Griess reagent); settings: for Nitric Oxide Percentage Scavenging Activity at 25 µg/mL / Nitric Oxide Percentage Scavenging Activity at 50 µg/mL / Nitric Oxide Percentage Scavenging Activity at 100 µg/mL: mean ± SD of three parallel measurements; for IC50 (nitric oxide scavenging): NO scavenging
[2] = target: urease (Canavalia ensiformis, UniProt P07374); assay: biochemical; type: biochemical; settings: for inhibition at 25 µg/mL: read-out: Percentage inhibition at 25 µg/mL; for inhibition at 50 µg/mL: read-out: Percentage inhibition at 50 µg/mL
urease, sequence (P07374 whole entry, looked up): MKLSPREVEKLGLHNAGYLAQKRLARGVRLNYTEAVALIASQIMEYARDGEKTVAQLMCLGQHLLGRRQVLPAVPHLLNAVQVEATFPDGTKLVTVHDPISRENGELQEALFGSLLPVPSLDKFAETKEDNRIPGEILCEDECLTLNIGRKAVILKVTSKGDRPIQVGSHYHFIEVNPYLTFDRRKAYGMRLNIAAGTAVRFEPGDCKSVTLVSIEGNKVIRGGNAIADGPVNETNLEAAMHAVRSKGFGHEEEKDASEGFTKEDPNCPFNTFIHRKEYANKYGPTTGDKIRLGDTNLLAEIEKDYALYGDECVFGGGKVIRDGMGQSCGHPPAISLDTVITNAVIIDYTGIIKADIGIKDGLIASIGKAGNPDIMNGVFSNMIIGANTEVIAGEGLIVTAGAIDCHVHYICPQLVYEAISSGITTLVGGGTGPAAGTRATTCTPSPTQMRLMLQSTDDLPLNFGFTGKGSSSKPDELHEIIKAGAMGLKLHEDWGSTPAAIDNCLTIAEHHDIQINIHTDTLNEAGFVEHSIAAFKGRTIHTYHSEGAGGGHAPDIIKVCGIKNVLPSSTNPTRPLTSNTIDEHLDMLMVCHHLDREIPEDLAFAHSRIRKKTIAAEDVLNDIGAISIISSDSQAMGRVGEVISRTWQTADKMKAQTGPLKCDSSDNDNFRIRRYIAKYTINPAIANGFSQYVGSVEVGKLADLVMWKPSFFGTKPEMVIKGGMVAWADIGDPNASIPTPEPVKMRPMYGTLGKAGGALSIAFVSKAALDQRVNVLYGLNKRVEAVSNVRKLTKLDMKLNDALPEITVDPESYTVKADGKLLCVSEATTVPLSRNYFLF
Experimental: The newly synthesized compounds 3a–e were examined for their urease inhibition activities in vitro at 25 and 50 μg/mL concentrations. […] Thus, enzyme stops catalyzing hydrolysis and the activity of the enzyme is inhibited.
The urease inhibitory activity of the synthesized compounds 2, 3a–e, 4 was determined as follows: phosphate buffer (pH 7, 200 µL) containing 1 unit of enzyme was mixed with phosphate buffer (230 µL) and of a particular stock solution (20 µL, thiourea or the test compound). The reaction mixture was incubated at 25 °C for 5 min. After the incubation period urea stock solution (400 µL, 20 mM) was added. Calibration mixture was prepared with no urea solution. All test tubes were further incubated at 40 °C for the action of urease for 10 min. This was followed by the addition of phenol hypochlorite reagent (1150 µL). Tubes were again incubated at 56 °C for 25 min. […] The IC50 values were determined using the EZ-fit kinetic data base.

SMILES | Nitric Oxide Percentage Scavenging Activity at 25 µg/mL [1] [%] | Nitric Oxide Percentage Scavenging Activity at 50 µg/mL [1] | Nitric Oxide Percentage Scavenging Activity at 100 µg/mL [1] | IC50 [2] [µM] | inhibition at 25 µg/mL [2] [%] | inhibition at 50 µg/mL [2] [%] | IC50 (nitric oxide scavenging) [1] [µg/mL] | melting point [°C] | IC50 (urease inhibition) ([2]; urease, EZ-fit) [µg/mL]
O=C1O[C@H]([C@@H](O)CO)C(O)=C1O [Ascorbic acid, reference compound] | 40.5 ± 0.01 | 70.50 ± 0.91% | 99.5 ± 0.91% |  |  |  |  |  | 
Nc1nc2ccc(Br)cc2s1 [Compound 2, 6-Bromobenzo[d]thiazole-2-amine] | 20 ± 0.004 | 48 ± 0.0007% | 90 ± 0.007% and 90 ± 0.0007% | 124 | 43 ± 0.0034 | 95 ± 0.005 | 57.8 (≈ 252 µM) |  | 
Cc1ccc(-c2ccc3nc(N)sc3c2)cc1 [Compound 3a, 6-p-Tolylbenzo[d]thiazole-2-amine] | 24 ± 0.003 | 67 ± 0.009% and 56 ± 0.001% | 95 ± 0.001% | 113 | 46 ± 0.005 | 90.49 ± 0.002 | 38.19 (≈ 159 µM) | 184 to 186 | 
Nc1nc2ccc(-c3ccc(Cl)cc3)cc2s1 [Compound 3b, 6-(4-Chlorophenyl)benzo[d]thiazole-2-amine] | 17 ± 0.006 | 34 ± 0.005% | 66 ± 0.005% | 117 | 39 ± 0.0012 | 88.19 ± 0.007 | 75 (≈ 288 µM) | 194 to 196 | 
COc1ccc(-c2ccc3nc(N)sc3c2)cc1 [Compound 3c, 6-(4-Methoxyphenyl)benzo[d]thiazole-2-amine] | 31 ± 0.022 | 67 ± 0.002% |  | 111 | 44 ± 0.005 | 86.24 ± 0.001 | 38.19 (≈ 149 µM) | 165 to 167 | 
Nc1nc2ccc(-c3cc(C(F)(F)F)cc(C(F)(F)F)c3)cc2s1 [Compound 3d, 6-(3,5-bis(Triflouromethyl)phenyl)benzo[d]thiazole-2-amine] | 10 ± 0.01 | 23 ± 0.009% | 63 ± 0.009% | 79.7 | 43 ± 0.007 | 88.6 ± 0.002 | 83.75 (≈ 231 µM) | 180 to 182 | 
Nc1nc2ccc(-c3ccccc3)cc2s1 [Compound 3e, 6-Phenylbenzo[d]thiazole-2-amine] | 9 ± 0.007 | 22 ± 0.001% | 52 ± 0.001% | 116 | 48 ± 0.005 | 85 ± 0.002 | 96.66 (≈ 427 µM) |  | 
CC(=O)Nc1nc2ccc(Br)cc2s1 [Compound 4, N-(6-Bromobenzo[d]thiazol-2-yl)acetamide] |  |  |  | 112 | 39 ± 0.001 | 89 ± 0.009 |  |  | 
NC(N)=S [Thiourea, reference compound] |  |  |  |  |  |  |  |  | 34.65 (≈ 455 µM)
